From US12077503B2, “Substituted cyclic amides and their use as herbicides” (FMC CORPORATION, priority 2015, dated 2024)

What was measured:
Assay in all cases: Test A preemergence
Assay type in all cases: in vivo
[1] = test system: ragweed (common ragweed, Ambrosia elatior); conditions: Ambrosia artemisiifolia, pre-emergence, 240 h, preemergence, 0 to 100 scale where 0 is no effect and 100 is complete control, read-out: Ragweed plant response rating; for pest or weed control at 125 g/ha: 125 g ai/ha, visual injury rating, approximately 10 d; for pest or weed control at 500 g/ha: 500 g ai/ha
Outline: (§1)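 Visual injury, scored on a 0–100 scale relative to untreated controls, was recorded about 10 d after application. Treatments were a preemergence soil spray over planted seeds or a postemergence spray on plants at the one- to two-leaf stage, 2 to 10 cm tall, all in loam soil–sand blend in the greenhouse.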

[2] = test system: pigweed (Amaranthus retroflexus); conditions: Amaranthus retroflexus, pre-emergence, 240 h, preemergence, 0 to 100 scale where 0 is no effect and 100 is complete control, read-out: Pigweed plant response rating; for pest or weed control at 125 g/ha: 125 g ai/ha, visual injury rating, approximately 10 d; for pest or weed control at 500 g/ha: 500 g ai/ha
[3] = test system: ryegrass, Italian (Italian ryegrass, Lolium multiflorum); conditions: Lolium multiflorum, pre-emergence, 240 h, preemergence, 0 to 100 scale where 0 is no effect and 100 is complete control, read-out: Ryegrass, Italian plant response rating; for pest or weed control at 125 g/ha: 125 g ai/ha, visual injury rating, approximately 10 d; for pest or weed control at 500 g/ha: 500 g ai/ha
Outline: as §1

[4] = test system: barnyardgrass (Echinochloa crus-galli); conditions: Echinochloa crus-galli, pre-emergence, 240 h, preemergence, 0 to 100 scale where 0 is no effect and 100 is complete control, read-out: Barnyardgrass plant response rating; for pest or weed control at 125 g/ha: 125 g ai/ha, visual injury rating, approximately 10 d; for pest or weed control at 500 g/ha: 500 g ai/ha
Outline: as §1

[5] = test system: giant foxtail (Setaria faberii); conditions: Setaria faberi, pre-emergence, 240 h, preemergence, 0 to 100 scale where 0 is no effect and 100 is complete control, read-out: Foxtail, Giant plant response rating; for pest or weed control at 125 g/ha: 125 g ai/ha, visual injury rating, approximately 10 d; for pest or weed control at 500 g/ha: 500 g ai/ha
Outline: as §1

Kochia (Kochia scoparia) = conditions: Bassia scoparia, pre-emergence, 240 h, preemergence, 0 to 100 scale where 0 is no effect and 100 is complete control, read-out: Kochia plant response rating; for pest or weed control at 125 g/ha: 125 g ai/ha, visual injury rating, approximately 10 d; for pest or weed control at 500 g/ha: 500 g ai/ha
Outline: as §1

SMILES | pest or weed control at 125 g/ha [1] | pest or weed control at 500 g/ha [1] | pest or weed control at 125 g/ha [2] | pest or weed control at 500 g/ha [2] | pest or weed control at 125 g/ha [3] | pest or weed control at 500 g/ha [3] | pest or weed control at 125 g/ha [4] | pest or weed control at 500 g/ha [4] | pest or weed control at 125 g/ha [5] | pest or weed control at 500 g/ha [5] | pest or weed control at 125 g/ha (Kochia (Kochia scoparia)) | pest or weed control at 500 g/ha (Kochia (Kochia scoparia))
N#Cc1cc([C@H]2CNC(=O)[C@]2(O)C(=O)Nc2ccccc2F)ccc1F [Compound 1200] | 0% | 0% | 0% | 0% | 0% | 0% | 0% | 0% | 0% | 0% | 0% | 0%
CSc1ccccc1NC(=O)[C@H]1C(=O)NC[C@@H]1c1ccc(F)c(C#N)c1 [Compound 1201] | 60% | 70% | 20% | 70% | 0% | 0% | 0% | 70% | 70% | 80% | 30% | 70%
CN1C[C@H](c2ccc3c(c2)OC(F)(F)O3)[C@@H](C(=O)Nc2ccc(F)c(F)c2F)C1=O [Compound 1204] | 90% | 90% | 70% | 100% | 70% | 90% | 90% | 90% | 90% | 90% | 80% | 80%
COc1cc(C(F)(F)F)ccc1[C@H]1CN(C)C(=O)[C@@H]1C(=O)Nc1cccc(F)c1C [Compound 1205] | 0% | 0% | 0% | 30% | 40% | 70% | 90% | 90% | 100% | 100% | 30% | 30%
Cc1c(F)cccc1NC(=O)[C@H]1C(=O)N(C)C[C@@H]1c1ccc(F)c(Br)c1 [Compound 1211] | 50% | 50% | 50% | 70% | 50% | 80% | 100% | 100% | 100% | 100% | 20% | 70%
Cc1c(F)cccc1NC(=O)[C@H]1C(=O)N(C)C[C@@H]1c1ccc(OC(F)F)cc1 [Compound 1213] | 50% | 70% | 50% | 80% | 20% | 70% | 100% | 100% | 100% | 100% | 70% | 80%
CN1C[C@H](c2cc(F)cc(C(F)(F)F)c2)[C@@H](C(=O)Nc2cccc(F)c2F)C1=O [Compound 1214] | 0% | 70% | 60% | 70% | 60% | 90% | 90% | 90% | 90% | 90% | 50% | 60%
COc1ccc([C@H]2CN(C)C(=O)[C@@H]2C(=O)Nc2ccccc2F)c(OC)c1 [Compound 1215] | 0% | 0% | 0% | 0% | 0% | 0% | 90% | 100% | 60% | 90% | 0% | 90%
COc1cc([C@H]2CN(C)C(=O)[C@@H]2C(=O)Nc2ccccc2F)cc(OC)c1OC [Compound 1217] | 0% | 0% | 0% | 0% | 0% | 0% | 90% | 100% | 90% | 100% | 0% | 0%
Cc1ccc([C@H]2CCN(C)C(=O)[C@@H]2C(=O)Nc2cccc(F)c2F)cc1 [Compound 1220] | 30% | 40% | 20% | 40% | 30% | 50% | 90% | 90% | 90% | 90% | 40% | 50%
CN1CC[C@H](c2ccc(C(F)(F)F)cc2)[C@@H](C(=O)Nc2cccc(F)c2F)C1=O [Compound 1225] | 50% | 60% | 30% | 50% | 20% | 40% | 90% | 90% | 90% | 90% | 60% | 70%
CSc1ccccc1NC(=O)[C@H]1C(=O)N(C)C[C@@H]1c1cccc(C)c1 [Compound 1232] | 60% | 80% | 70% | 90% | 20% | 60% | 90% | 90% | 90% | 90% | 70% | 80%
CN1C[C@H](c2ccc(F)c(Br)c2)[C@@H](C(=O)Nc2cccc(F)c2F)C1=O [Compound 1234] | 40% | 60% | 70% | 90% | 40% | 80% | 100% | 100% | 100% | 100% | 70% | 80%
O=C1NC[C@H](c2ccc(C(F)(F)F)cc2)C1C(=O)Nc1ccccc1CO (stereo partly drawn) [Compound 1242] | 0% | 0% | 0% | 0% | 0% | 0% | 20% | 60% | 30% | 80% | 0% | 0%
